Reference: patent publication US4699925A, “Biphenylylpropionic acid derivative and pharmaceutical composition containing the same” (priority 1982, dated 1987)
Where two headings read alike, the source gives them in different places.

Tests used:
[1] = test system: carrageenan-induced edema; experiment: Inhibitory effect on carrageenan-induced edema; assay type: in vivo, Wistar male rats; details: Rattus norvegicus
Procedure: Five Wistar male rats weighing about 150 g. were used as one group. A 1% dispersion of carrageenan was injected intracutaneously into the foot pad of the right hind foot in a dose of 0.1 ml./rat. The compounds to be tested were orally administered to the rats fasted for 15 hours one hour before the carrageenan injection, or intravenously administered 2 hours […] the carrageenan injection. The volume of the foot subjected to the injection was measured by a mercury plethysmography 3 hours after the carrageenan injection on the test by oral route or 2 hours after the carrageenan injection on the test by intravenous route, and the carrageenan-induced edema was estimated from the obtained measurements.

[2] = Hydrolysis of FP derivatives in human plasma; assay type: in vitro ADME; details: 37° C., one hour, read-out: Hydrolyzing rate
Procedure: (§1) Each reaction mixture was incubated at 37° C. for one hour.
(§2) The free FP formed by esterase in the plasma was extracted with benzene. After treating the extract with N,O-bis(trimethylsilylacetamide) for trimethylsilylation, the obtained material was determined by gas-liquid chromatography.

[3] = Gastric ulceration (gastric irritation test); parameters: species or system Wistar male rats; details: rat, in vivo, po, read-out: UD50
Procedure: Five Wistar male rats weighing about 150 g. were used as one group. The rats were fasted for 24 hours before the test.
Six hours after orally administration of the present compounds to be tested, there was observed an existence of gastric ulcer by the method of Okabe et al (Ohyoyakuri, 16, 241 to 247 (1978)). The UD50 values were calculated from the ulcer incidence of gastric ulcer by the method of Litchfield-Wilcoxon.

[4] = Acute toxicity; parameters: species or system male SLC-ddY mice; details: mouse, in vivo, po
[5] = Hydrolysis of FP derivatives in rat plasma; assay type: in vitro ADME; details: Table 4; rat plasma (Compound Nos. 8 to 13), 37° C., one hour; read-out: Hydrolyzing rate
Procedure: as §1, §2

[6] = human, plasma, Table 1, human plasma
[7] = human, plasma, Table 4, human plasma (Compound Nos. 1 to 7)
[8] = Table 1, orally in rats, 50% ulcerative dose
[9] = Table 3, rats, orally, six hours after administration
[10] = Table 1, orally in mice, 50% lethal dose
[11] = Table 5, mice, orally, observation for 2 weeks

Compound	ED50 ([1]; iv, 2 h, read-out: ED50 i.v.) [mg/kg]	ED50 ([1]; po, 1 h, read-out: ED50 p.o.) [mg/kg]	ED50 ([1]; po, read-out: ED50 p.o.) [mg/kg]	metabolised at 1 h [2, 6] [%]	metabolised at 1 h [2, 7] [%]	TD50 at 6 h [3, 8] [mg/kg]	TD50 at 6 h [3, 9] [mg/kg]	LD50 at 336 h [4, 10] [mg/kg]	LD50 at 336 h [4, 11] [mg/kg]	metabolised at 1 h [5] [%]	ED50 ([1]; po, 1 h, Table 1, rats, orally, one hour before carrageenan injection, read-out: ED50 p.o.) [mg/kg]	ED50 ([1]; po, Table 2, rats, orally one hour before carrageenan injection, measured 3 hours after carrageenan, read-out: ED50 p.o.) [mg/kg]	metabolised at 1 h ([2]; Table 4, human plasma (Compound Nos. 1 to 7)) [%]
CC(=O)OCOC(=O)C(C)c1ccc(-c2ccccc2)c(F)c1 (stereo not shown) [Compound No. 1, acetoxymethyl 2-(2-fluoro-4-biphenylyl)propionate]	0.08	0.5	0.5	97.5	97.5	3.7	3.6	880	880				
CCC(=O)OCOC(=O)C(C)c1ccc(-c2ccccc2)c(F)c1 (stereo not shown) [Compound No. 2, propionyloxymethyl 2-(2-fluoro-4-biphenylyl)propionate]	0.07	0.5	0.5	94.6	94.6	2.5	2.5	750	750				
CC(C)C(=O)OCOC(=O)C(C)c1ccc(-c2ccccc2)c(F)c1 (stereo not shown) [Compound No. 3, isobutyryloxymethyl 2-(2-fluoro-4-biphenylyl)propionate]	0.1	0.6	0.6	86.3	86.3	2	2	600	600				
C/C=C/C(=O)OCOC(=O)C(C)c1ccc(-c2ccccc2)c(F)c1 (stereo not shown) [Compound No. 4, crotonoyloxymethyl 2-(2-fluoro-4-biphenylyl)propionate]	0.08	0.6	0.6	81.4	81.4	2	2	600	600				
CC(C)=CC(=O)OCOC(=O)C(C)c1ccc(-c2ccccc2)c(F)c1 (stereo not shown) [Compound No. 5, 3,3-dimethylacryloyloxymethyl 2-(2-fluoro-4-biphenylyl)propionate]	0.06	0.5	0.5	64.8	115	2	2	900	900				
CCCCCCCCCCCCCCCC(=O)OCOC(=O)C(C)c1ccc(-c2ccccc2)c(F)c1 (stereo not shown) [Compound No. 6, palmitoyloxymethyl 2-(2-fluoro-4-biphenylyl)propionate]	0.5	1.5	1.5	3.8	3.8	5	5	1000	> 1000				
CC(C(=O)OCOC(=O)C(C)(C)C)c1ccc(-c2ccccc2)c(F)c1 (stereo not shown) [Compound No. 7, pivaloyloxymethyl 2-(2-fluoro-4-biphenylyl)propionate]	0.1	0.6	0.6	70.3	70.3	2.5	2.5	840	840				
CC(=O)OCCOC(=O)C(C)c1ccc(-c2ccccc2)c(F)c1 (stereo not shown) [Compound No. 8, 2-(acetoxy)ethyl 2-(2-fluoro-4-biphenylyl)propionate]		0.7	0.7			2	2	650	650	101			
CCC(=O)OCCOC(=O)C(C)c1ccc(-c2ccccc2)c(F)c1 (stereo not shown) [Compound No. 9, 2-(propionyloxy)ethyl 2-(2-fluoro-4-biphenylyl)propionate]		0.7	0.7			2	2	700	700	98.9			
C/C=C/C(=O)OCCOC(=O)C(C)c1ccc(-c2ccccc2)c(F)c1 (stereo not shown) [Compound No. 10, 2-(crotonoyloxy)ethyl 2-(2-fluoro-4-biphenylyl)propionate]		0.9	0.9			3	3	800	800	99.5			
CC(C)=CC(=O)OCCOC(=O)C(C)c1ccc(-c2ccccc2)c(F)c1 (stereo not shown) [Compound No. 11, 2-(3,3-dimethylacryloyloxy)ethyl 2-(2-fluoro-4-biphenylyl)propionate]		1	1			3	3	880	880	99.8			
CC=CC=CC(=O)OCCOC(=O)C(C)c1ccc(-c2ccccc2)c(F)c1 (stereo not shown) [Compound No. 12, 2-(2,4-hexadienoyloxy)ethyl 2-(2-fluoro-4-biphenylyl)propionate]		0.9	0.9			3	3	750	750	100			
CC(C)=CCCC(C)=CC(=O)OCCOC(=O)C(C)c1ccc(-c2ccccc2)c(F)c1 (stereo not shown) [Compound No. 13, 2-(3,7-dimethyl-2,6-octadienoyloxy)ethyl 2-(2-fluoro-4-biphenylyl)propionate]		0.9	0.9			3	3	750	750	101			
CC(C(=O)O)c1ccc(-c2ccccc2)c(F)c1 (stereo not shown) [FP, 2-(2-fluoro-4-biphenylyl)propionic acid, reference compound]	0.3	0.8	0.8			1	1	440	440				
COc1ccc2c(c1)c(CC(=O)OCC(=O)O)c(C)n2C(=O)c1ccc(Cl)cc1 [acemethacin, reference compound]								18	18		8.3	8.3	4.2
COc1ccc2c(c1)c(CC(=O)O)c(C)n2C(=O)c1ccc(Cl)cc1 [indomethacin, reference compound]	1.25	5.5	5.5			5	5	14	14				
